Experimental data from patent US20180153159A1, “FATTY NITRILE SOLVENTS FOR AGRICULTURAL FORMULATIONS” (priority 2015, published 2018).

How the values were obtained:
[1] = Solubility of various pesticides in alkyl nitrile; assay type: physicochemical
Source text: In Table 1, the designation of C14-18 represents the nitrile derived from tallow and C8-C16 represents the nitrile derived from coco. Note that the C14-C18 tallow nitrile corresponds to an R value of C13-C17 in Formula (I), because Formula (I) includes a carbon atom outside of the R group definition. Likewise, C8-C16 coco nitrile corresponds to an R value of C7-C15 in Formula (I). The C10 value in the first column of Table 1 corresponds to an R value of C9 in Formula (I) for the same reasons.

[2] = Appearance, flow and viscosity of (DMAPA) DDBS diluted with fatty nitrile; assay type: physicochemical
Source text: Dimethylaminopropylamine dodecylbenzene sulfonic acid (DMAPA-DDBS) is generally highly viscous. A low viscosity liquid sample of (DMAPA) DDBS was obtained by mixing 51.69 g of DDBS, 40 g tallow nitrile (fractionated), followed by slowly adding 8.31 g DMAPA.
A liquid sample of dimethylaminopropylamine (DMAPA) DDBS was obtained by mixing 43.08 g dodecylbenzene sulfonic (DDBS) acid, 25 g oleic nitrile, 25 g castor oil ethoxylate (10EO), followed by slowly adding 6.92 g DMAPA.

[3] = 0.1 g in 5 g C14-C18 (tallow) nitrile
[4] = in 100 g C10 nitrile, room temperature
[5] = in 100 g C14-C18 (tallow) nitrile
[6] = <10 g in 100 g C14-C18 (tallow) nitrile

## CNC.O=C(O)COc1ccc(Cl)cc1Cl [2,4-D DMA]
[1]; [3]
  Result (solubility in alkyl nitrile): Solid at bottom

## CCOP(=S)(OCC)Oc1nc(Cl)c(Cl)cc1Cl [Chlorpyrifos]
[1]; 44 g in 100 g C14-C18 (tallow) nitrile
  Result (solubility in alkyl nitrile): Dissolved
[1]; in 20 g C10 nitrile + 80 g Solvesso 100 solvent, room temperature
  Wt, g (pesticide dissolved): 102 g
[1]; in 20 g C10 nitrile + 80 g methyl ester solvent, room temperature
  Wt, g (pesticide dissolved): 87 g
[1]; in 30 g C10 nitrile + 70 g methyl ester solvent, room temperature
  Wt, g (pesticide dissolved): 100 g
[1]; in 35 g C10 nitrile + 65 g Solvesso 100 solvent, room temperature
  Wt, g (pesticide dissolved): 103 g
[1]; in 40 g C10 nitrile + 60 g methyl ester solvent, room temperature
  Wt, g (pesticide dissolved): 166 g
[1]; in 50 g C10 nitrile + 50 g Solvesso 100 solvent, room temperature
  Wt, g (pesticide dissolved): 102 g
[1]; [4]
  Wt, g (pesticide dissolved): 84 g
[1]; [5]
  Wt, g (pesticide dissolved): 44 g
[1]; in C10 nitrile (Arneel 10D)
  amount the C10 nitrile can dissolve: about 46%

## O=C(O)CNCP(=O)(O)O [Glyphosate acid]
[1]; [3]
  Result (solubility in alkyl nitrile): Solid at bottom

## COc1cc(OC)nc(NC(=O)NS(=O)(=O)c2ncccc2C(=O)N(C)C)n1 [Nicosulfuron]
[1]; 0.114 g (92.22%) in 1 g C14-C18 (tallow) nitrile
  Result (solubility in alkyl nitrile): Suspension

## CC(C)(C)C(O)(CCc1ccc(Cl)cc1)Cn1cncn1 (stereo not drawn) [Tebuconazole]
[1]; 0.4 g in 5 g C14-C18 (tallow) nitrile
  Result (solubility in alkyl nitrile): Hazy to clr
[1]; [6]
  Result (solubility in alkyl nitrile): Dissolved
[1]; [4]
  Wt, g (pesticide dissolved): <10 g
[1]; [5]
  Wt, g (pesticide dissolved): <10 g

## CON=C(C(=O)OC)c1ccccc1CON=C(C)c1cccc(C(F)(F)F)c1 [Trifloxystrobin]
[1]; [6]
  Result (solubility in alkyl nitrile): Dissolved
[1]; in 50 g C10 nitrile + 50 g rapeseed methylester (solvent), room temperature
  Wt, g (pesticide dissolved): 14 g
[1]; [4]
  Wt, g (pesticide dissolved): 19 g
[1]; [5]
  Wt, g (pesticide dissolved): <10 g

## NC(N)=O [Urea]
[1]; 0.26 g in 1 g C14-C18 (tallow) nitrile
  Result (solubility in alkyl nitrile): Doesn't dissolve
[1]; fatty nitrile as solvent
  solvency power of fatty nitrile towards the agrochemical: very little solvency power

## Dimethylaminopropylamine dodecylbenzene sulfonic acid [(DMAPA) DDBS]
[2]; 43.08 g DDBS acid, 25 g oleic nitrile, 25 g castor oil ethoxylate (10EO), 6.92 g DMAPA
  appearance, flow and viscosity of sample: clear, flowed at about 0° C., and had acceptable viscosity
[2]; 51.69 g DDBS, 40 g tallow nitrile (fractionated), 8.31 g DMAPA
  appearance, flow and viscosity of sample: clear, flowed freely at room temperature and had acceptable viscosity
[2]; oleic nitrile instead of tallow nitrile
  appearance, flow and viscosity of sample: flowed better at lower temperatures

## Pyritherin
[1]; 3.15 g in 5 g C14-C18 (tallow) nitrile
  Result (solubility in alkyl nitrile): Clear
